Results on 5 compounds are retold here after ChEMBL document CHEMBL3045658, “Design, synthesis, antiviral activity, and SARs of 14-aminophenanthroindolizidines” (2012).

SMILES strings stand for the structures.

Holding throughout (type): functional
In test [1] the test system is Tobacco mosaic virus. The test can be described thus: Antiviral activity against Tobacco mosaic virus (TMV) assessed as inhibition effect at 1 ug/mL.
Test [2] concerns Tobacco mosaic virus. Kind of test: Antiviral activity against Tobacco mosaic virus (TMV) assessed as inhibition effect at 500 ug/mL.
The subject of test [3] is Tobacco mosaic virus. Kind of test: In vivo antiviral activity against Tobacco mosaic virus (TMV) inoculated right side of Nicotiana. tabacum L. leaves assessed as protection effect at 100 ug/mL preincubated 12 hr before viral challenge measured after 3 to 4 days.
In test [4] the test system is Tobacco mosaic virus. The test can be described thus: In vivo antiviral activity against Tobacco mosaic virus (TMV) inoculated right side of Nicotiana. tabacum L. leaves assessed as protection effect at 500 ug/mL preincubated 12 hr before viral challenge measured after 3 to 4 days.
The subject of test [5] is Tobacco mosaic virus. Kind of test: In vivo antiviral activity against Tobacco mosaic virus (TMV) pre-inoculated Nicotiana. tabacum L. leaves assessed as curative effect at 100 ug/mL measured after 3 to 4 days.
Test [6] concerns Tobacco mosaic virus. Kind of test: In vivo antiviral activity against Tobacco mosaic virus (TMV) pre-inoculated Nicotiana. tabacum L. leaves assessed as curative effect at 500 ug/mL measured after 3 to 4 days.
Test [7] concerns Tobacco mosaic virus. Kind of test: In vivo antiviral activity against Tobacco mosaic virus (TMV) inoculated left side of Nicotiana. tabacum L. leaves assessed as inactivation effect at 100 ug/mL co-incubated with virus measured after 3 to 4 days.
Test [8] concerns Tobacco mosaic virus. Kind of test: In vivo antiviral activity against Tobacco mosaic virus (TMV) inoculated left side of Nicotiana. tabacum L. leaves assessed as inactivation effect at 500 ug/mL co-incubated with virus measured after 3 to 4 days.
The test system of test [9] is Tobacco mosaic virus. The test can be described thus: Antiviral activity against Tobacco mosaic virus (TMV) inoculated in 5-6 growth stage leaf assessed as inhibition effect at 100 ug/mL at 25 degC after 72 hr by half-leaf method.
Test [10] deals with Tobacco mosaic virus. The test can be described thus: Antiviral activity against Tobacco mosaic virus (TMV) inoculated in 5-6 growth stage leaf assessed as inhibition effect at 500 ug/mL at 25 degC after 72 hr by half-leaf method.

As to `COc1cc2c3c(c4ccc(O)cc4c2cc1OC)CN1CCC[C@@H]1C3`, the inhibition (usually how much of the control response was suppressed) at 1 µg/mL in test [1] amounted to 70%.
For the compound `CC(=O)N1CN(C(C)=O)C(=O)NC1=O`, in [2], the inhibition at 500 µg/mL was 50%.
With `COc1ccc2c3c(c4cc(OC)c(OC)cc4c2c1)C[C@H]1CCCN1C3` [(-)-ANTOFINE], in test [1], the inhibition at 1 µg/mL amounted to 63%.
Take `O=C1NCNC(=O)N1`: the inhibition at 500 µg/mL in [2] came to 50%.
On to `COc1ccc2c3c(c4cc(OC)c(OC)cc4c2c1)[C@H](NC(C)=O)[C@@H]1CCCN1C3`, for which the inhibition in vivo (as a rule, the percentage by which the read-out fell short of the control) at 100 µg/mL amounted to 55.3% in test [3], 50.8% in test [5] and 40.4% in test [7]. For the same compound, the inhibition in vivo at 500 µg/mL in [4] was 72.7%; in test [6] it was 69.6%; in test [8], 72.2%. Also, in [9], the inhibition at 100 µg/mL came to 55%. In [10], the inhibition at 500 µg/mL stood at 75.1%.
